# In US20230115350A1 (Cedilla Therapeutics, Inc., priority 2021, published 2023):
# Biological target: TEAD1 protein (YAP Binding Domain) (Homo sapiens, UniProt P28347)
# Assay: TEAD1 lipid pocket compound displacement assay (TR-FRET, Cy5-probe)
# Details: 60 minutes incubation at room temperature; TR-FRET 665 nm/620 nm; read-out: CDA IC50
# Experimental: Compound Displacement Assay.
# A TEAD1 lipid pocket displacement assay was carried out according to the following protocol. Purified His-tagged TEAD1 protein (YAP Binding Domain) was pre-mixed with a Cy5-probe (Cy5-conjugated to a small molecule that binds in the TEAD1 lipid pocket) and Terbium-labeled anti-His antibody (Cisbio Cat 61HI2TLB). The binding of the Cy5-probe to anti-His-Tb/His-tag TEAD1 complex yielded a TR-FRET signal. […] After 60 minutes incubation at room temperature of compounds with the His-TEAD1/anti-His-Tb/Cy5-probe complex, the plate was read on a plate reader (BMG ClarioStar Cat 430-1300) using TR-FRET mode with wavelengths of 665 nm/620 nm. The potency of compounds as TEAD1 lipid pocket binders was determined by IC50 value generated using a non-linear 4 parameter curve fit.
# TEAD1 protein (YAP Binding Domain), sequence (P28347 209-426 limits assumed): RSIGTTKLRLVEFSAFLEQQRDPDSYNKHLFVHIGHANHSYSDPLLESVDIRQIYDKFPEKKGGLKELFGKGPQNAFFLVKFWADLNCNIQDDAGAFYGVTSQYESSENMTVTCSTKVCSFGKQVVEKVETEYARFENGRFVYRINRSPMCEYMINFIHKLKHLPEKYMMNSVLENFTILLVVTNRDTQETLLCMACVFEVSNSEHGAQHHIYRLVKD
row,SMILES,IC50
1,"C=CC(=O)Nc1ccc(OCc2cccc(F)c2)c(C2CC2)c1 [Compound 2, N-(3-cyclopropyl-4-((3-fluorobenzyl)oxy)phenyl)acrylamide]",250 to 500 nM
2,"C=CC(=O)Nc1ccc(OCc2cccc(F)c2)cc1C1CC1 [Compound 4, N-(2-cyclopropyl-4-((3-fluorobenzyl)oxy)phenyl)acrylamide]",250 to 500 nM
3,"C=CC(=O)Nc1ccc2c(c1)CCC(c1cccc(F)c1)O2 (stereo not shown) [Compound 5, N-(2-(3-fluorophenyl)chroman-6-yl)acrylamide]",> 2000 nM
4,"C=CC(=O)Nc1ccc(OCc2cccc(F)c2)c(OC)c1 [Compound 6, N-(4-((3-fluorobenzyl)oxy)-3-methoxyphenyl)acrylamide]",250 to 500 nM
5,"C=CC(=O)Nc1ccc(OCc2cccc(F)c2)cc1OC [Compound 7, N-(4-((3-fluorobenzyl)oxy)-2-methoxyphenyl)acrylamide]",≤ 250 nM
6,"C=CC(=O)Nc1ccc2c(c1)OCC(c1cccc(F)c1)O2 (stereo not shown) [Compound 8, N-(2-(3-fluorophenyl)-2,3-dihydrobenzo[b][1,4]dioxin-6-yl)acrylamide]",250 to 500 nM
7,"C=CC(=O)Nc1ccc2c(c1)NCC(c1cccc(F)c1)O2 (stereo not shown) [Compound 10, N-(2-(3-fluorophenyl)-3,4-dihydro-2H-benzo[b][1,4]oxazin-6-yl)acrylamide]",> 2000 nM
8,"C=CC(=O)Nc1ccc(OCc2cccc(F)c2)cc1CC(N)=O [Compound 11, N-(2-(2-amino-2-oxoethyl)-4-((3-fluorobenzyl)oxy)phenyl)acrylamide]",> 2000 nM
9,"C=CC(=O)Nc1ccc2c(c1)N(C)CC(c1cccc(F)c1)O2 (stereo not shown) [Compound 12, N-(2-(3-fluorophenyl)-4-methyl-3,4-dihydro-2H-benzo[b][1,4]oxazin-6-yl)acrylamide]",> 2000 nM
10,"C=CC(=O)Nc1ccc(OCc2cccc(F)c2)cc1Cc1ccncc1 [Compound 13, N-(4-((3-fluorobenzyl)oxy)-2-(pyridin-4-ylmethyl)phenyl)acrylamide]",> 2000 nM
11,"C=CC(=O)Nc1ccc(OCc2cccc(F)c2)c2c1CCCO2 [Compound 14, N-(8-((3-fluorobenzyl)oxy)chroman-5-yl)acrylamide]",> 2000 nM
12,"C=CC(=O)Nc1ccc(OCc2cccc(F)c2)c2c1CCCC2 [Compound 15, N-(4-((3-fluorobenzyl)oxy)-5,6,7,8-tetrahydronaphthalen-1-yl)acrylamide]",250 to 500 nM
13,"C=CC(=O)Nc1ccc(OCc2cccc(F)c2)cc1CC1CC1 [Compound 16, N-(2-(cyclopropylmethyl)-4-((3-fluorobenzyl)oxy)phenyl)acrylamide]",> 2000 nM
14,"C=CC(=O)Nc1ccc(N(Cc2cccc(F)c2)CC2CC2)c(F)c1 [Compound 17, N-(4-((cyclopropylmethyl)(3-fluorobenzyl)amino)-3-fluorophenyl)acrylamide]",≤ 250 nM
15,"C=CC(=O)Nc1ccc(N(Cc2ccncc2)Cc2cccc(F)c2)c(F)c1 [Compound 18, N-(3-fluoro-4-((3-fluorobenzyl)(pyridin-4-ylmethyl)amino)phenyl)acrylamide]",> 2000 nM
16,"C#Cc1cccc(COc2ccc(NC(=O)C=C)cc2F)c1 [Compound 25, N-(4-((3-ethynylbenzyl)oxy)-3-fluorophenyl)acrylamide]",250 to 500 nM
17,"Fc1cc(-c2nnn[nH]2)ccc1OCC1CCC(F)(F)CC1 [Compound 29, 5-(4-((4,4-difluorocyclohexyl)methoxy)-3-fluorophenyl)-1H-tetrazole]",500 to 2000 nM
18,"C=CC(=O)Nc1ccc(OC(C)C2CCC(F)(F)CC2)c(F)c1 (stereo not shown) [Compound 30, N-(4-(1-(4,4-difluorocyclohexyl)ethoxy)-3-fluorophenyl)acrylamide]",250 to 500 nM
19,"C=CC(=O)Nc1ccc(NC(=O)C2CCC(F)(F)CC2)c(F)c1 [Compound 32, N-(4-acrylamido-2-fluorophenyl)-4,4-difluorocyclohexanecarboxamide]",≤ 250 nM
20,"CS(=O)(=O)Nc1ccc(OCC2CCC(F)(F)CC2)c(F)c1 [Compound 33, N-(4-((4,4-difluorocyclohexyl)methoxy)-3-fluorophenyl)methane sulfonamide]",500 to 2000 nM
21,"C=CS(=O)(=O)Nc1ccc(OCC2CCC(F)(F)CC2)c(F)c1 [Compound 34, N-(4-((4,4-difluorocyclohexyl)methoxy)-3-fluorophenyl) ethene sulfonamide]",≤ 250 nM
22,"O=C(O)c1ccc(OCC2CCC(F)(F)CC2)c(F)c1 [Compound 35, 4-((4,4-difluorocyclohexyl)methoxy)-3-fluorobenzoic acid]",250 to 500 nM
23,"O=C(O)c1ccc(F)c(OCC2CCC(F)(F)CC2)c1 [Compound 36, 3-((4,4-difluorocyclohexyl)methoxy)-4-fluorobenzoic acid]",250 to 500 nM
24,"O=C(NS(=O)(=O)C1CC1)c1ccc(OCC2CCC(F)(F)CC2)c(F)c1 [Compound 37, N-(cyclopropylsulfonyl)-4-((4,4-difluorocyclohexyl)methoxy)-3-fluorobenzamide]",500 to 2000 nM
25,"C=CC(=O)Nc1ccc(OCc2cccc(F)c2)cc1 [Compound 44, N-(4-((3-fluorobenzyl)oxy)phenyl)acrylamide]",> 2000 nM

row,SMILES,IC50
1,"C=CC(=O)Nc1ccc(OCc2cccc(F)c2)c(Cl)c1 [Compound 46, N-(3-chloro-4-((3-fluorobenzyl)oxy)phenyl)acrylamide]",≤ 250 nM
2,"C=CC(=O)Nc1ccc(OCc2cccc(F)c2)cc1C [Compound 47, N-(4-((3-fluorobenzyl)oxy)-2-methylphenyl)acrylamide]",500 to 2000 nM
3,"C=CC(=O)Nc1ccc(OCC2CCC(F)(F)CC2)c(C)c1 [Compound 48, N-(4-((4,4-difluorocyclohexyl)methoxy)-3-methylphenyl)acrylamide]",≤ 250 nM
4,"C=CC(=O)Nc1ccc(OCc2ccccc2)c(F)c1 [Compound 52, N-(4-(benzyloxy)-3-fluorophenyl)acrylamide]",250 to 500 nM
5,"C=CC(=O)Nc1ccc(OCc2cccnc2)c(F)c1 [Compound 56, N-(3-fluoro-4-(pyridin-3-ylmethoxy)phenyl)acrylamide]",> 2000 nM
6,"C=CC(=O)Nc1ccc(OCc2cnccc2Cl)c(F)c1 [Compound 57, N-(4-((4-chloropyridin-3-yl)methoxy)-3-fluorophenyl)acrylamide]",> 2000 nM
7,"C=CC(=O)Nc1ccc(OCc2ccsc2Cl)c(F)c1 [Compound 61, N-(4-((2-chlorothiophen-3-yl)methoxy)-3-fluorophenyl)acrylamide]",500 to 2000 nM
8,"C=CC(=O)Nc1ccc(OCc2ccc(C(=O)OC)s2)c(F)c1 [Compound 62, methyl 5-((4-acrylamido-2-fluorophenoxy)methyl)thiophene-2-carboxylate]",500 to 2000 nM
9,"C=CC(=O)Nc1ccc(OCc2cnc(C)s2)c(F)c1 [Compound 64, N-(3-fluoro-4-((2-methylthiazol-5-yl)methoxy)phenyl)acrylamide]",> 2000 nM
10,"C=CC(=O)Nc1ccc(OCc2oc(=O)oc2C)c(F)c1 [Compound 65, N-(3-fluoro-4-((5-methyl-2-oxo-1,3-dioxol-4-yl)methoxy)phenyl)acrylamide]",> 2000 nM
11,C=CC(=O)Nc1ccc(OCc2ccncc2)c(F)c1 [Compound 66],> 2000 nM
12,"C=CC(=O)Nc1ccc(OCc2ccnc(C#N)c2)c(F)c1 [Compound 67, N-(4-((2-cyanopyridin-4-yl)methoxy)-3-fluorophenyl)acrylamide]",> 2000 nM
13,"C=CC(=O)Nc1ccc(OCc2ccc(Br)nc2)c(F)c1 [Compound 68, N-(4-((6-bromopyridin-3-yl)methoxy)-3-fluorophenyl)acrylamide]",500 to 2000 nM
14,"C=CC(=O)Nc1ccc(OCc2ccc(C)nc2)c(F)c1 [Compound 69, N-(3-fluoro-4-((6-methylpyridin-3-yl)methoxy)phenyl)acrylamide]",> 2000 nM
15,"C=CC(=O)Nc1ccc(OCc2ccc(C(=O)OC)nc2)c(F)c1 [Compound 70, methyl 5-((4-acrylamido-2-fluorophenoxy)methyl)picolinate]",> 2000 nM
16,"C=CC(=O)Nc1ccc(OCc2cccnc2C)c(F)c1 [Compound 75, N-(3-fluoro-4-((2-methylpyridin-3-yl)methoxy)phenyl)acrylamide]",> 2000 nM
17,"C=CC(=O)Nc1ccc(OCc2ccc(C#N)cc2Cl)c(F)c1 [Compound 77, N-(4-((2-chloro-4-cyanobenzyl)oxy)-3-fluorophenyl)acrylamide]",> 2000 nM
18,"C=CC(=O)Nc1ccc(OCc2cc(Cl)ccc2Cl)c(F)c1 [Compound 79, N-(4-((2,5-dichlorobenzyl)oxy)-3-fluorophenyl)acrylamide]",500 to 2000 nM
19,"C=CC(=O)Nc1ccc(OCc2ccc(C(F)(F)F)cc2Cl)c(F)c1 [Compound 81, N-(4-((2-chloro-4-(trifluoromethyl)benzyl)oxy)-3-fluorophenyl)acrylamide]",> 2000 nM
20,"C=CC(=O)Nc1ccc(OCc2c(F)cccc2Cl)c(F)c1 [Compound 85, N-(4-((2-chloro-6-fluorobenzyl)oxy)-3-fluorophenyl)acrylamide]",> 2000 nM
21,"C=CC(=O)Nc1ccc(OCc2c(Cl)cccc2Cl)c(F)c1 [Compound 86, N-(4-((2,6-dichlorobenzyl)oxy)-3-fluorophenyl)acrylamide]",> 2000 nM
22,"C=CC(=O)Nc1ccc(OCc2cc(C(=O)OC)ccc2Cl)c(F)c1 [Compound 87, methyl 3-((4-acrylamido-2-fluorophenoxy)methyl)-4-chlorobenzoate]",500 to 2000 nM
23,"C=CC(=O)Nc1ccc(OCc2cc(OC)ccc2Cl)c(F)c1 [Compound 88, N-(4-((2-chloro-5-methoxybenzyl)oxy)-3-fluorophenyl)acrylamide]",250 to 500 nM
24,"C=CC(=O)Nc1ccc(OCc2cccc(Cl)c2)c(F)c1 [Compound 90, N-(4-((3-chlorobenzyl)oxy)-3-fluorophenyl)acrylamide]",≤ 250 nM
